The results in this text go back to publication PMC10041525, “New Dual Inhibitors of Bacterial Topoisomerases with Broad-Spectrum Antibacterial Activity and In Vivo Efficacy against Vancomycin-Intermediate Staphylococcus aureus” (Journal of Medicinal Chemistry, 2023).

Converted amounts (≈) assume the structure as drawn. “And” between values parts separate entries of the source, which are not always exact repeats. Identical values can stand only once. Like-named read-outs stand apart in the source and are kept apart here.

Type in all cases: cell-based
The test system of assay [1] is 3 sensitive and 7 MDR A. baumannii clinical isolates. In words: MIC, Hungarian clinical isolates and controls (384-well). To be noted: n=10.
In assay [2] the test system is P. aeruginosa ATCC 27853. In words: IHMA QC MIC.
The test system of assay [3] is A. baumannii ATCC 17978. The assay is described as follows: IHMA QC MIC. Here is the method: (§1) The panel of Hungarian clinical isolates and controls measured following the same method as detailed above, and albeit measurements were carried out in 384-well microtiter plates (Corning Inc.).
Assay [4] has as its system E. coli ATCC 35218. The assay is described as follows: IHMA QC MIC. Here is the method:
as §1

Assay [5] has as its system E. coli ATCC 25922. The assay is described as follows: IHMA QC MIC.
[6] abbreviates: Pseudomonas aeruginosa, ATCC27853, read-out: MIC (QC, repeated tests).
[7] abbreviates: Escherichia coli, ATCC35218; read-out: MIC (QC, repeated tests).
[8] abbreviates: Escherichia coli, ATCC25922; read-out: MIC (QC, repeated tests).
[9] abbreviates: Acinetobacter baumannii, ATCC17978; read-out: MIC (QC, repeated tests).

In the case of `C[C@H]1COc2c(N3CCN(C)CC3)c(F)cc3c(=O)c(C(=O)O)cn1c23.C[C@H]1COc2c(N3CCN(C)CC3)c(F)cc3c(=O)c(C(=O)O)cn1c23.O` [Levofloxacin, levofloxacin], the “Cumulative % at MIC” value in assay [1] (MIC 0.0625 µg/mL) amounted to 30%. Also, the MIC was 2 µg/mL in assay [2] (Pseudomonas aeruginosa, ATCC27853, QC strain P. aeruginosa ATCC 27853, test date 2021-11-11); 1 µg/mL in assay [2] (Pseudomonas aeruginosa, ATCC27853, QC strain P. aeruginosa ATCC 27853, test date 2021-11-26); 1 µg/mL in assay [2] (QC strain P. aeruginosa ATCC 27853, test date 2021-11-11); at most 0.25 µg/mL in assay [3] (Acinetobacter baumannii, ATCC17978, read-out: MIC (QC, repeated tests)); at most 0.25 µg/mL in assay [4] (Escherichia coli, ATCC35218, read-out: MIC (QC, repeated tests)); 0.015 µg/mL in assay [5] (Escherichia coli, ATCC25922). Moreover, the MIC in assay [5] (Escherichia coli, ATCC25922, read-out: MIC (QC, repeated tests)) was at most 0.25 µg/mL; in assay [5] (QC strain E. coli ATCC 25922, test date 2021-11-26) it was 0.015 µg/mL.
`C[C@@H](O)[C@H]1C(=O)N2C(C(=O)O)=C(S[C@@H]3CN[C@H](C(=O)N(C)C)C3)[C@H](C)[C@H]12` [Meropenem, meropenem]: the “Cumulative % at MIC” value in assay [1] (MIC 1 µg/mL) amounted to 30%; in assay [1] (MIC 64 µg/mL), 100%; in assay [1] (MIC […]), 10%. The “MIC (QC, repeated tests)” value in assay [2] stood at 1 µg/mL (≈ 2.61 µM). Moreover, the minimum inhibitory concentration (MIC) in assay [2] (setting [6]) is 0.5 µg/mL (≈ 1.3 µM); in assay [4] (setting [7]) it was at most 0.06 µg/mL; in assay [5] (setting [8]) it was at most 0.06 µg/mL.
`COc1c(N2C[C@@H]3CCCN[C@@H]3C2)c(F)cc2c(=O)c(C(=O)O)cn(C3CC3)c12` [Moxifloxacin, moxifloxacin]: the “Cumulative % at MIC” value came to 20% in assay [1] (MIC 0.0625 µg/mL), 30% in assay [1] (MIC 0.5 µg/mL), 70% in assay [1] (MIC 32 µg/mL) and 100% in assay [1] (MIC 64 µg/mL). For the same molecule, the minimum inhibitory concentration (MIC) is 2 µg/mL (≈ 4.98 µM) in assay [2] (setting [6]), at most 0.5 µg/mL in assay [3] (setting [9]), at most 0.5 µg/mL in assay [4] (setting [7]) and at most 0.5 µg/mL in assay [5] (setting [8]).
On to `CN(C)c1cc(NC(=O)CNC(C)(C)C)c(O)c2c1C[C@H]1C[C@H]3[C@H](N(C)C)C(O)=C(C(N)=O)C(=O)[C@@]3(O)C(O)=C1C2=O` [Tigecycline, tigecycline], for which the figures for the “MIC (QC, repeated tests)” value in assay [2] and in assay [3] were 4 µg/mL (≈ 6.83 µM) and 0.5 µg/mL (≈ 0.854 µM), respectively. Also, the minimum inhibitory concentration (MIC) in assay [2] (setting [6]) was 8 µg/mL (≈ 13.7 µM); in assay [3] (setting [9]) it was 0.25 µg/mL (≈ 0.427 µM); in assay [4] (setting [7]), 0.12 µg/mL (≈ 0.205 µM); in assay [5] (setting [8]), 0.12 µg/mL (≈ 0.205 µM).
As to “piperacillin/tazobactam [Piperacillin Tazobactam]”, the “MIC (QC, repeated tests)” value in assay [2] was 4 µg/mL and 8 µg/mL; in assay [4] it was 1 µg/mL; in assay [5], 2 µg/mL.
